ChEMBL document CHEMBL1201862, “PubChem BioAssay data set” (2004)
Calls of active or inactive are those of the source.

Experiments:
[1] = Luminescence Cell-Based Dose Confirmation HTS to Identify Inhibitors of Platelet Dense Granule Release. [Related pubchem assays: 1663 (Primary HTS), 1678 (Summary of Project)]; type: functional
[2] = inhibitors of Bluetongue virus cytopathic effect, confirmation, arbovirus, BSR cells (AID 1250); type: functional;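 also: protection from viral cytopathic effect measured as cell viability by ATP luminescence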
[3] = system: H9c2; assay: cells; type: functional, cell-based; settings: Rattus norvegicus, H9c2, Myocardium;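 also: confirmatory concentration-response retest of ultra-high-throughput screening hits for modulation of myocardial damage; cell death induced by hydrogen peroxide oxidative stress; compound pretreatment for 60 min then peroxide exposure for 2 h; potency is for protecting the cells against peroxide damage rather than for killing them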
[4] = target: T1, Luciferin 4-monooxygenase (Photinus pyralis, UniProt P08659); assay: firefly luciferase enzyme inhibitors, dose response, biochemical, luminescence (AID 1891)
[5] = A Cell Based Secondary Assay To Explore Cytotoxicity of Compounds that Sensitize Mycobacterium Tuberculosis to Beta-Lactam Antibiotics.; type: functional
[6] = target: Lytic switch protein BZLF1 (Epstein-Barr virus (strain B95-8) (HHV-4) (Human herpesvirus 4), UniProt P03206); assay: EBV ZTA inhibitors, dose response, counter-screen for EBNA-1 inhibitor project, biochemical, fluorescence polarization, Epstein-Barr virus, 1536-well (AID 2377); set-up: species or system human gammaherpesvirus 4;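 also: fluorescence polarization of Cy5-labelled ZRE DNA probe bound by purified Zta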
[7] = target: Epstein-Barr nuclear antigen 1 (Epstein-Barr virus (strain B95-8) (HHV-4) (Human herpesvirus 4), UniProt P03211); assay: EBNA-1 inhibitors, dose response, biochemical, fluorescence polarization, 1536-well (AID 2381); set-up: species or system human gammaherpesvirus 4;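 also: fluorescence polarization of a Cy5 DNA probe bound by EBNA-1 protein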
[8] = target: Cytochrome P450 3A4 (Homo sapiens, UniProt P08684);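 also: CYP3A4 tested as one member of a cytochrome P450 panel screen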
[9] = target: Peroxisome proliferator-activated receptor gamma/Nuclear receptor coactivator 3 (Homo sapiens, UniProt P37231); type: functional;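 also: agonist potency for raising coactivator recruitment to the receptor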
[10] = target: Peroxisome proliferator-activated receptor gamma/Nuclear receptor coactivator 2 (Homo sapiens, UniProt P37231); type: functional;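 also: agonist potency for raising coactivator recruitment to the receptor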
[11] = target: Peroxisome proliferator-activated receptor gamma/Nuclear receptor coactivator 1 (Homo sapiens, UniProt P37231); type: functional;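 also: agonist potency as compounds enhance coactivator SRC-1 recruitment to PPARgamma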
[12] = target: T1, Luciferin 4-monooxygenase; assay: Counter Screen for Luciferase-based Assay Positives. [Related pubchem assays: 620, 618, 411 ]
[13] = system: HT-1080; assay: cytotoxicity in HT1080 fibrosarcoma cells, cell-based, fluorescence readout (AID 620); type: functional; settings: Homo sapiens
[14] = target: T2, Bcl-2-related protein A1 (Mus musculus, UniProt Q07440); assay: Bfl-1 inhibitors blocking BH3 peptide binding, confirmation, biochemical, TR-FRET, mouse Bfl-1 (AID 621);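 also: TR-FRET binding of GST-Bfl-1 to FITC-labelled Bid peptide via terbium antibody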
T2 sequence (Q07440 whole entry): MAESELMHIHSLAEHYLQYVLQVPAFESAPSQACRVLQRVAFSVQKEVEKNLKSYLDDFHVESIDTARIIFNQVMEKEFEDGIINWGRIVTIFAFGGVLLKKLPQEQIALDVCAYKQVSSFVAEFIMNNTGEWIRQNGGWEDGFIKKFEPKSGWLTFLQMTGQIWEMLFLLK

[15] = target: T2, Bcl-2-related protein A1; assay: Bfl-1 binding inhibitors, SAR follow-up, biochemical, fluorescence polarization (AID 1070)
[16] = target: T3, Protein skinhead-1 (Caenorhabditis elegans, UniProt P34707); type: functional
T3 sequence (P34707 whole entry): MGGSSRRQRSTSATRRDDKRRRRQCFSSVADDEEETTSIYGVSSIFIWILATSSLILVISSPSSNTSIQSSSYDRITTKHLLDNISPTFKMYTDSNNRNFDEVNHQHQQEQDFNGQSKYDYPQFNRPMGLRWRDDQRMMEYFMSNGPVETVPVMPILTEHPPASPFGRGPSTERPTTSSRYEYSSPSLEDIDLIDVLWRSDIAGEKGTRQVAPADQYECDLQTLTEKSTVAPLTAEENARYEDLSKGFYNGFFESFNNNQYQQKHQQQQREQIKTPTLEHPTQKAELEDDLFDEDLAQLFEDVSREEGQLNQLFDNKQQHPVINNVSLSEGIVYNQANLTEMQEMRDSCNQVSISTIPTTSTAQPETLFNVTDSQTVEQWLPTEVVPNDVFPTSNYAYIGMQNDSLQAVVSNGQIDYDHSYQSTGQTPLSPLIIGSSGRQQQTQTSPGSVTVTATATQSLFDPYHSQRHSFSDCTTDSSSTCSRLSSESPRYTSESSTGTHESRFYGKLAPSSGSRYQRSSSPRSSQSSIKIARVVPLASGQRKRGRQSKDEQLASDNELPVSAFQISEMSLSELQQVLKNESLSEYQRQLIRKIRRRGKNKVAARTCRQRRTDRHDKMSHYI

[17] = target: Glyceraldehyde-3-phosphate dehydrogenase (Homo sapiens, UniProt P04406)
[18] = Luminescence Cell-Based Dose Response HTS to Identify Activators of Luciferase Translation or Activity in H4 […] Cells. [Related pubchem assays: 1829 (Project Summary), 1814 (Primary HTS)]; type: functional
[19] = system: H4; assay: Luminescence Cell-Based Dose Response HTS to Identify Activators of 5'UTR Stem-Loop Driven Prion Protein mRNA Translation in H4 Neuroglioblastoma Cells. [Related pubchem assays: 1829 (Project Summary), 1814 (Primary HTS)]; type: functional; settings: Homo sapiens
[20] = target: T4, Sentrin-specific protease 7 (Homo sapiens, UniProt Q9BQF6); type: functional;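 also: Luminescence-based dose-response confirmation of ultra-high-throughput screening hits, measuring inhibition of SENP7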
T4 sequence (Q9BQF6 whole entry): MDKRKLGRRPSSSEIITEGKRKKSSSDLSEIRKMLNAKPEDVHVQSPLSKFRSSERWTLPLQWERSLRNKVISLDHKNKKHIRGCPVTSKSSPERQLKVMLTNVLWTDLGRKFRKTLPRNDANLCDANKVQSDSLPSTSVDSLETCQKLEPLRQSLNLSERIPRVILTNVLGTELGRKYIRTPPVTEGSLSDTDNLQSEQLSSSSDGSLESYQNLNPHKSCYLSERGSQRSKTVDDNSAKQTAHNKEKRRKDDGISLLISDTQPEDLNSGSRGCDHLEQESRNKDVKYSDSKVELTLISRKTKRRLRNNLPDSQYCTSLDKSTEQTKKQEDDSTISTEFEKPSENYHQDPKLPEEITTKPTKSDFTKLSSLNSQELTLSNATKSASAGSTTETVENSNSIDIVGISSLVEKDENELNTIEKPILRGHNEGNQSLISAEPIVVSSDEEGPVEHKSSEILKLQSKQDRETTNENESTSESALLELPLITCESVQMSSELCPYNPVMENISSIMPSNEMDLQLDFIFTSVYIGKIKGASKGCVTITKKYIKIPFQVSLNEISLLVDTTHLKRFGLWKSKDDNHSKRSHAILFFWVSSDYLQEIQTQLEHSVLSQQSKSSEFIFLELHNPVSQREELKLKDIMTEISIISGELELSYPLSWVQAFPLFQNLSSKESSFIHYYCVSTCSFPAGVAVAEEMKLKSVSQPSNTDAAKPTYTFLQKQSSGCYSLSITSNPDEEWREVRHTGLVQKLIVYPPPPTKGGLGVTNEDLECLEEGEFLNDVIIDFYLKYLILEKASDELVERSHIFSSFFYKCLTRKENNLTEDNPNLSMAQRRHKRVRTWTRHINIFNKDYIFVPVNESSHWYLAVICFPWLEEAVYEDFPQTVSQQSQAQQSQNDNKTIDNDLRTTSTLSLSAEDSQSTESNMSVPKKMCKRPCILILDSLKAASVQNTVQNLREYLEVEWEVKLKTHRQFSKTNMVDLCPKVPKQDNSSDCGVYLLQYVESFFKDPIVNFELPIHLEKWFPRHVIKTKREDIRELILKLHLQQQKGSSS

[21] = Luminescence Cell-Based Dose Response to Identify Activators of Luciferase Translation or Activity in H4-C Neuroglioblastoma Cells. [Related pubchem assays: 1829 (Project Summary), 1814 (Primary HTS)]; type: functional
[22] = Luminescence Cell-Based Dose Confirmation to Identify Activators of 5'UTR Stem-Loop Driven Alpha-Synuclein mRNA Translation in H4 Neuroglioblastoma Cells. [Related pubchem assays: 1829 (Project Summary), 1814 (Primary HTS)]; type: functional
[23] = target: T5, Sentrin-specific protease 8 (Homo sapiens, UniProt Q96LD8); type: functional;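 also: luminescence read-out of SENP8 inhibition, dose-response confirmation following an ultra-high-throughput screen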
T5 sequence (Q96LD8 whole entry): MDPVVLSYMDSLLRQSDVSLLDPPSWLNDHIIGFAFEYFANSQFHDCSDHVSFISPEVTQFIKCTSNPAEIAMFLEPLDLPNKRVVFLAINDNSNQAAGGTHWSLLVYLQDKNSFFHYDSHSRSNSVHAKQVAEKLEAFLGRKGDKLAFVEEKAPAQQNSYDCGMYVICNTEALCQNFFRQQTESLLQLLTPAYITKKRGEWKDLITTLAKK

[24] = Luminescence Cell-Based Dose Response to Identify Activators of 5'UTR Stem-Loop Driven Prion Protein mRNA Translation in H4-C Neuroglioblastoma Cells. [Related pubchem assays: 1829 (Project Summary), 1814 (Primary HTS)]; type: functional
[25] = target: T6, Sentrin-specific protease 6 (Homo sapiens, UniProt Q9GZR1); type: functional;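 also: Luminescence-based dose-response confirmatory assay of SENP6 inhibition, following up an ultra-high-throughput screen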
T6 sequence (Q9GZR1 whole entry): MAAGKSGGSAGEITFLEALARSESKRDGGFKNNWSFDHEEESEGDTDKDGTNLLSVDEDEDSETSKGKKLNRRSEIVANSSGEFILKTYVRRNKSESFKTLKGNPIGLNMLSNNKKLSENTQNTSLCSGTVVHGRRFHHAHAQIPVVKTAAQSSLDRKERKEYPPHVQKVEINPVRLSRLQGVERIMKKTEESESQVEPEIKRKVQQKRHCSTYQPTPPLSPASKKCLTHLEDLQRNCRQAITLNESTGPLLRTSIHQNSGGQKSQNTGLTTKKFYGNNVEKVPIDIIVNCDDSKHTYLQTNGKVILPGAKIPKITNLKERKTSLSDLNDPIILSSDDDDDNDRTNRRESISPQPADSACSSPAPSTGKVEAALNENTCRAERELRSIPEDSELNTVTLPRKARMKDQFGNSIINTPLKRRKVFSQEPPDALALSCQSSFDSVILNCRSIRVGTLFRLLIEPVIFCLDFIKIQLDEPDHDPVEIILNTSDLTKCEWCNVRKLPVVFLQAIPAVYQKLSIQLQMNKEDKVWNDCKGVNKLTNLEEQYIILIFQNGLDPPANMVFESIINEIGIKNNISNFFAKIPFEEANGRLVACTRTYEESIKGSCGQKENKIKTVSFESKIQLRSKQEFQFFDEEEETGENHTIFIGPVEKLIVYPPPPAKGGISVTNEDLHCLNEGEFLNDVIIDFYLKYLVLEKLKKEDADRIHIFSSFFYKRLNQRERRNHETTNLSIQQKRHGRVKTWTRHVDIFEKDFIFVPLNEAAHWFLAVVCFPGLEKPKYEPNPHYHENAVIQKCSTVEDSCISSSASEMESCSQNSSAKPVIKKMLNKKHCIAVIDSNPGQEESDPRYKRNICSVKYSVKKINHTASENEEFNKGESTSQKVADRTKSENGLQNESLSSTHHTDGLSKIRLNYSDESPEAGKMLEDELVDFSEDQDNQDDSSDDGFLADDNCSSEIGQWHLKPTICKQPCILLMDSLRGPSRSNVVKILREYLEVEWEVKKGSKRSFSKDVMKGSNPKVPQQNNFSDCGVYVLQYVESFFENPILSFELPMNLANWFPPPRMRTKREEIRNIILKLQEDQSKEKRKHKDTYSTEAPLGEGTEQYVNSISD

[26] = target: T7, Caspase-3 (Homo sapiens, UniProt P42574); type: functional;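 also: Dose-response selectivity test against caspase-3 for candidate inhibitors of sentrin-specific proteases (SENPs)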
T7 sequence (P42574 whole entry): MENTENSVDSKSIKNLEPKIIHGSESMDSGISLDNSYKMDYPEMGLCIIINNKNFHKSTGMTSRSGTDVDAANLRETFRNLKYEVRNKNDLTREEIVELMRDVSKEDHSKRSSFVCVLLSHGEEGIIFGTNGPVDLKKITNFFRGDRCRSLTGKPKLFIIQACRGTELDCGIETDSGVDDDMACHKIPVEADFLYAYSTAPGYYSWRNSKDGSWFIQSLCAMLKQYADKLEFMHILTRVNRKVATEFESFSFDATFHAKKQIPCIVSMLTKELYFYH

[27] = target: Cytochrome P450 2C19 (Homo sapiens, UniProt P33261); assay: Cytochrome panel assay with activity outcomes. Panel member name: p450-cyp2c19 Compounds with AC50 equal or less than 10 uM are considered active; type: functional; settings: read-out: AC50
Sequence of Cytochrome P450 2C19 (P33261 whole entry): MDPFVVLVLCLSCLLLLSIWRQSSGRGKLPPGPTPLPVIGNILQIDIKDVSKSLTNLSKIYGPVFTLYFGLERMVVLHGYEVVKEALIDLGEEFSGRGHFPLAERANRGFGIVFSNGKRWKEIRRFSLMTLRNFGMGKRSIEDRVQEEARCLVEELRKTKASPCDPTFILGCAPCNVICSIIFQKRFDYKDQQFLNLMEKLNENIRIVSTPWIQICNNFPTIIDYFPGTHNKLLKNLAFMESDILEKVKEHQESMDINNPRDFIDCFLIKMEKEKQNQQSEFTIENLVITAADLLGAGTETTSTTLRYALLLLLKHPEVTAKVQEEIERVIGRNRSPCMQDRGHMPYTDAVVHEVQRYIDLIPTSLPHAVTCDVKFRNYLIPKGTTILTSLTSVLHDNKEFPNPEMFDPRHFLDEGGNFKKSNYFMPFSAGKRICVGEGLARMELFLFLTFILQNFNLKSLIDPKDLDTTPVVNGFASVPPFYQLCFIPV

T1 sequence (P08659 whole entry): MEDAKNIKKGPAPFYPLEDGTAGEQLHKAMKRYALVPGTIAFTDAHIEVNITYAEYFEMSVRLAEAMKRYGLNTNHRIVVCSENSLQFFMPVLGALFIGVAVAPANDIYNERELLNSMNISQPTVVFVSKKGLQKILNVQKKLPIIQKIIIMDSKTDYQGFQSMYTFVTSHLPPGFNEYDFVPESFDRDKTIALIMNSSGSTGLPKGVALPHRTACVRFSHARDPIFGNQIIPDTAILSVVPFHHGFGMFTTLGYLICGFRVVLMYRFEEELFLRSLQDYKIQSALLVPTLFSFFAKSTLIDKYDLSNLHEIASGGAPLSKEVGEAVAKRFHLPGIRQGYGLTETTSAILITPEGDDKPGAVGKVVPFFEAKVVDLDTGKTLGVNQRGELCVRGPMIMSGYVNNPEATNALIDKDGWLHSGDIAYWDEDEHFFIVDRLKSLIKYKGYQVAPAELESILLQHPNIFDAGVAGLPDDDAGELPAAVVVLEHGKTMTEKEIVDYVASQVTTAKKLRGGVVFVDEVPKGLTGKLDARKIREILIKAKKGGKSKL
Sequence of Epstein-Barr nuclear antigen 1 (P03211 whole entry): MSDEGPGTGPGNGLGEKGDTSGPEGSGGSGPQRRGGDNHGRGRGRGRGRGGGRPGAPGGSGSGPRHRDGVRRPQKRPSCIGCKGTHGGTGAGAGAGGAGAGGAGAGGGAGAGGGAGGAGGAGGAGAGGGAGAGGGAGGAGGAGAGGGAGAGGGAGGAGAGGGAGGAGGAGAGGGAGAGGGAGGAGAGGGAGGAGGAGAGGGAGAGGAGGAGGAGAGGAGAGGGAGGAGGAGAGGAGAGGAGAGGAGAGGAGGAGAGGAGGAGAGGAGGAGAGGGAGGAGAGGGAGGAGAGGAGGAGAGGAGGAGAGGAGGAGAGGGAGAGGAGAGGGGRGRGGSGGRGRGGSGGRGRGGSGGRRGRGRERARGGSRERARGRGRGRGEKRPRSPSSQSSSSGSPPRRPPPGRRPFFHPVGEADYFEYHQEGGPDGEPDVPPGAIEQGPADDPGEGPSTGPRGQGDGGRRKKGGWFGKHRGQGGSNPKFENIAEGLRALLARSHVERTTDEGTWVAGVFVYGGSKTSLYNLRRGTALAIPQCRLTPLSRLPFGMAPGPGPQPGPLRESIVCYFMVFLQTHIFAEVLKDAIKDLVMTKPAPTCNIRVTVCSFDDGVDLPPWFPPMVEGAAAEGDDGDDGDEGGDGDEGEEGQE
Sequence of Lytic switch protein BZLF1 (P03206 whole entry): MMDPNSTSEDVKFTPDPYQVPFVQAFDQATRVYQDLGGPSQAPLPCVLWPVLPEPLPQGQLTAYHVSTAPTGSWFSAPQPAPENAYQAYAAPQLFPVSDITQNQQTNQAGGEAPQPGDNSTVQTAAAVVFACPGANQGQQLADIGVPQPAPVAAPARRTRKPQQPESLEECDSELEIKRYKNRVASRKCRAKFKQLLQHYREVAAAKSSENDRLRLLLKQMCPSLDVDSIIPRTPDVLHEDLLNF
Sequence of Peroxisome proliferator-activated receptor gamma/Nuclear receptor coactivator 2 (P37231 whole entry): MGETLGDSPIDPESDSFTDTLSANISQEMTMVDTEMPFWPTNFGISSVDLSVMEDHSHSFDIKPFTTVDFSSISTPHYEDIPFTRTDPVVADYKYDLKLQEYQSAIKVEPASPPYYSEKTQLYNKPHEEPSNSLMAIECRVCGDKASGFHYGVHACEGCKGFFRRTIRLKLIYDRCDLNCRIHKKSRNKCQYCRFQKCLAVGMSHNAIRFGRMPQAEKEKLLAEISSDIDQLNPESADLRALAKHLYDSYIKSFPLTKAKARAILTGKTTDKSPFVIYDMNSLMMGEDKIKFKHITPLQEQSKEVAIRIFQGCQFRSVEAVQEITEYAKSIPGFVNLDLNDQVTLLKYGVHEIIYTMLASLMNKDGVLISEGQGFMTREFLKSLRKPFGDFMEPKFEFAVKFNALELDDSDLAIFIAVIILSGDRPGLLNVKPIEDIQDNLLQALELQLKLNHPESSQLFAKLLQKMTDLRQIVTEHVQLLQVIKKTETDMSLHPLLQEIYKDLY
Sequence of Peroxisome proliferator-activated receptor gamma/Nuclear receptor coactivator 2 (Q15596 whole entry, further chain): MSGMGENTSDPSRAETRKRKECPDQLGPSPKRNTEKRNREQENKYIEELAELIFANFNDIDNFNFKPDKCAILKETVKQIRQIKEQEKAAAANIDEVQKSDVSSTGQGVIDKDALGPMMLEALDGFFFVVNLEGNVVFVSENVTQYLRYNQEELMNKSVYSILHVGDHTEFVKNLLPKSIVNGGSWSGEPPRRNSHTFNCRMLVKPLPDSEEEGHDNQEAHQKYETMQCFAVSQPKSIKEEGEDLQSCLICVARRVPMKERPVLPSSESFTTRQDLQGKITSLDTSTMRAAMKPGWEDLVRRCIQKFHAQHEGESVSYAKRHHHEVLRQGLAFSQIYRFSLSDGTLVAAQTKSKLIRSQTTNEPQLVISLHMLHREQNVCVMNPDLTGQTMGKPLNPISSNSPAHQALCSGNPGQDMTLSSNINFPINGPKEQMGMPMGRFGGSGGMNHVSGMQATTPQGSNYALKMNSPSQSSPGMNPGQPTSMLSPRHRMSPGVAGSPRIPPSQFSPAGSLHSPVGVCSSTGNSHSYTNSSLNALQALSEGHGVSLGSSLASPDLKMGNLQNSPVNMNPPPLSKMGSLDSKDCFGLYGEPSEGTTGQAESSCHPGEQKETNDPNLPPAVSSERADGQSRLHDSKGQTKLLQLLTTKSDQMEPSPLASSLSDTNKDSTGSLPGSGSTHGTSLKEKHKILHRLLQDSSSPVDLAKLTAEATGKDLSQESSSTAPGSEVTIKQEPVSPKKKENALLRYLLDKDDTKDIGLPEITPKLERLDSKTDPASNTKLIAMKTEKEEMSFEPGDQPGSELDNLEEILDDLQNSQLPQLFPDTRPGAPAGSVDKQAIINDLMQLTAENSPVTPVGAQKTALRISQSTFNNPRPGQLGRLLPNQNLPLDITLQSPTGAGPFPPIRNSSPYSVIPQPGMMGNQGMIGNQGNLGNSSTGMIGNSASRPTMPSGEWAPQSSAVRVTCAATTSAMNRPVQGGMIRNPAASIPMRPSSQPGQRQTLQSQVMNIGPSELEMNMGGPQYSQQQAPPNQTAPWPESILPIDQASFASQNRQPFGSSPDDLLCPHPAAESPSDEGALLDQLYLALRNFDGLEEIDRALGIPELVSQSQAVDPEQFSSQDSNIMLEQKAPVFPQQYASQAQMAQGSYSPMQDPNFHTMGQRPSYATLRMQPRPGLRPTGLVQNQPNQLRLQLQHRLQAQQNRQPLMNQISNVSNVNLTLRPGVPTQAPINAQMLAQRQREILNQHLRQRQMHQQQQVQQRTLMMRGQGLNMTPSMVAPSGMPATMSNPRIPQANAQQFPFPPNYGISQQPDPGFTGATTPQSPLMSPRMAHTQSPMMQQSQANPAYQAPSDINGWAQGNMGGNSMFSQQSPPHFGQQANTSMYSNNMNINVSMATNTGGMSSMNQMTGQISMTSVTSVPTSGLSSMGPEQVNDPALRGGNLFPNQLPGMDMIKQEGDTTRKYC
Sequence of Cytochrome P450 3A4 (P08684 whole entry): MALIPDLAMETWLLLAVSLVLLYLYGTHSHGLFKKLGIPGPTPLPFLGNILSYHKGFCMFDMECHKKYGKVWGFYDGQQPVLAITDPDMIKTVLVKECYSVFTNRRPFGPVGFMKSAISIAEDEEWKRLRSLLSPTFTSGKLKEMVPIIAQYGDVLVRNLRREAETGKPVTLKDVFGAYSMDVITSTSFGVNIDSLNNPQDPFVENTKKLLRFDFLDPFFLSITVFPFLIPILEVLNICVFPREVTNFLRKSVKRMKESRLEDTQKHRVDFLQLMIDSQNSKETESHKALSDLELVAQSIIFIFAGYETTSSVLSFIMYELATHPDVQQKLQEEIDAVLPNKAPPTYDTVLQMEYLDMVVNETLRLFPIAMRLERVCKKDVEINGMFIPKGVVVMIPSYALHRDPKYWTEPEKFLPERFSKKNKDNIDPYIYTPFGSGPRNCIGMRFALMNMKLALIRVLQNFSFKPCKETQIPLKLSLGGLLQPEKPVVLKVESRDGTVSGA
Sequence of Glyceraldehyde-3-phosphate dehydrogenase (P04406 whole entry): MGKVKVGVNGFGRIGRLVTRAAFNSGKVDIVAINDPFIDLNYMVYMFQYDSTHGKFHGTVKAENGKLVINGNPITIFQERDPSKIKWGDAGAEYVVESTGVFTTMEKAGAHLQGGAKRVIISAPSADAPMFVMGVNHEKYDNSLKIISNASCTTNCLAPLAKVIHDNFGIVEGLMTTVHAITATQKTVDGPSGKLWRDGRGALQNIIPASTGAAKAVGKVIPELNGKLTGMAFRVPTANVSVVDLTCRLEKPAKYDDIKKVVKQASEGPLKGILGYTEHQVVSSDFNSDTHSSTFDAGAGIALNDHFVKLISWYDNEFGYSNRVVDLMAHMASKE

Structure (SMILES): COc1ccc(-c2nnc(-c3cc(OC)c(OC)c(OC)c3)o2)cc1OC
- EC50 [1]: > 112 µM (not active)
- IC50 [2]: 27.5 µM (active)
- IC50 [3]: 12.5 µM (active)
- EC50 [4]: > 112 µM (not active)

Structure (SMILES): C[C@H](NC(=O)c1[nH]cnc1C(=O)Nc1cccc(Cl)c1)c1ccccc1
- CC50 [5]: 19.3 µM (active)

Structure (SMILES): COc1ccc(N/C=C2/C(=O)N(c3ccc(OC)cc3)C(=O)c3ccccc32)cc1
- IC50 [6]: > 111 µM (not active)
- IC50 [7]: 8.99 µM (active)

Structure (SMILES): Cc1ccccc1OCC(=O)Nc1sc(C(=O)Nc2cccc(C)c2C)c(C)c1C#N
- AC50 [8]: inconclusive
- EC50 [9]: < 79.4 µM (not active)
- EC50 [10]: 36.5 µM (not active)
- EC50 [11]: 52.4 µM (not active)

Structure (SMILES): c1ccc(-c2ccc(-c3ccccn3)nn2)nc1
- EC50 [12]: > 100 µM (not active)
- EC50 [13]: > 50 µM (not active)

Structure (SMILES): COc1ccc2nc(O)c(-c3nnn(-c4ccc(C)cc4)n3)cc2c1
- IC50 [14]: > 100 µM (not active)
- IC50 [15]: > 100 µM (not active)

Structure (SMILES): Cc1ccc2nc(NC(=O)c3ccco3)sc2c1
- EC50 [12]: 18.9 µM (active)
- IC50 [16]: > 100 µM (inactive)
- EC50 [13]: > 50 µM (not active)

Structure (SMILES): COc1cc(OC)c(/C=C2\SC(=O)N(CC(=O)Nc3ccccc3F)C2=O)c(OC)c1
- IC50 [6]: > 111 µM (not active)
- IC50 [7]: 1.98 µM (active)

Structure (SMILES): CCOc1ccccc1N1CCN(C2=C(Cl)C(=O)N(c3ccc(Cl)c(Cl)c3)C2=O)CC1
- IC50 [14]: > 100 µM (not active)
- IC50 [15]: > 100 µM (not active)
- IC50 [17]: > 100 µM (not active)

Structure (SMILES): O=C(Nc1cccc(F)c1)Nc1ccc2c(c1)CCC2
- EC50 [18]: < 0.1 µM (active)
- EC50 [19]: > 120 µM (not active)
- IC50 [20]: 2.85 µM (active)
- EC50 [21]: 0.463 µM (active)
- EC50 [22]: 10.7 µM (active)
- IC50 [23]: > 100 µM (inactive)
- EC50 [24]: 0.63 µM (active)
- IC50 [25]: > 100 µM (inactive)
- IC50 [26]: 57.8 µM (active)

Structure (SMILES): O=C(CC1CCCC1)Nc1ccc2c(c1)CCC2
- EC50 [9]: > 79.4 µM (not active)
- EC50 [10]: > 79.4 µM (not active)
- EC50 [11]: > 79.4 µM (not active)
- AC50 [27]: 7.08 µM (inconclusive)
